Values after ≈ are worked out from the molar mass of the structure shown. Where two headings read alike, the source gives them in different places.
What was measured:
[1] = biological target: T1, MtbAPSR (Mycobacterium tuberculosis, UniProt P9WIK3); assay: biochemical; design: species or system M. tuberculosis
[2] = LUM assay counterscreen; type: biochemical; conditions: LOPAC pilot screen, dose-response
[3] = tested on: Non replicating WT Mtb H37Rv; assay: Bactericidal activity against nonreplicating; type: cell-based; conditions: Mycobacterium tuberculosis
[4] = tested on: Non replicating Msm mc2:155 ΔcysH; type: cell-based, Mycobacterium smegmatis; conditions: 2 mM methionine; Alamar Blue assay
[5] = tested on: VERO cells; assay: Cytotoxicity in VERO cells; type: cell-based
[6] = biological target: T1, MtbAPSR; assay: biochemical; type: binding, M. tuberculosis
[7] = tested on: RecA; conditions: qRT-PCR, normalized to housekeeping gene SigA
[8] = HRP-PR H2O2 detection counterscreen for redox-cycling compounds; type: biochemical; conditions: 0.8 mM DTT

T1 sequence (P9WIK3 whole entry): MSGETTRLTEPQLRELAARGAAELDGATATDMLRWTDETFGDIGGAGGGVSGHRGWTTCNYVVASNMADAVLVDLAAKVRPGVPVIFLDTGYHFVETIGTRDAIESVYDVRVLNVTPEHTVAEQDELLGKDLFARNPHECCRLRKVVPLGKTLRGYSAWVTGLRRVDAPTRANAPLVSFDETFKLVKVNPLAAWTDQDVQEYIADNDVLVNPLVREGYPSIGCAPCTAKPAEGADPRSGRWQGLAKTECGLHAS

Cl.N[C@@H](CCl)C(=O)O [β-Chloro-L-alanine hydrochloride, reference compound]
activity in LUM assay ([1]; LOPAC pilot screen, dose-response): no activity
activity in LUM counterscreen [2]: no activity

Cc1c2ccncc2c(C)c2c1[nH]c1ccccc12 [Compound 5, ellipticine]
IC50 ([1]; LUM Assay, IC50, dose-response LUM assay, Table 1): 4.2 µM
IC50 ([1]; apparent IC50 in LUM assay, LOPAC pilot screen hit, dose-response, 384-well): 11.1 µM
activity in LUM counterscreen [2]: inactive
MBC ([3]; read-out: Non replicating WT Mtb H37Rv, (+) Met): 12.5 µM (≈ 3.08 µg/mL)
MBC ([3]; read-out: Non replicating WT Mtb H37Rv, (−) Met): 12.5 µM (≈ 3.08 µg/mL)
Non replicating Msm mc2:155; MBC, ΔcysH [4]: >100 µM
lethal concentration (LC90) in VERO cells [5]: 63 µM
cytotoxicity fold lower compared to bactericidal activity against nonreplicating Mtb ([5]; VERO LC90 vs MBC): ~ 5 fold
Kd [6]: 12 µM

CO[C@@]12[C@H](COC(N)=O)C3=C(C(=O)C(C)=C(N)C3=O)N1C[C@@H]1N[C@@H]12 [mitomycin C]
upregulation of RecA [7]: significant upregulation

O=C1C(SCCO)=C(SCCO)C(=O)c2ccccc21 [NSC 95397]
generation of H2O2 in HRP-PR assay [8]: showed generation of H2O2

CSc1nc(N)c2ncn([C@@H]3O[C@H](COP(=O)(O)OP(=O)(O)O)[C@@H](O)[C@H]3O)c2n1.[Na].[Na].[Na] [2-Thiomethyladenoside diphosphate trisodium, reference compound]
activity in LUM assay [1]: active
activity in LUM counterscreen [2]: active

— PMC4729198 (ACS chemical biology, 2015)
